What all share (type): functional
In assay [1] the test system is Streptococcus pneumoniae. In words: Minimum inhibitory concentration of the compound against 3 […] Streptococcus pneumoniae OC4051 with an erm(B)-ribosomal methylase-mediated resistance was determined.
Assay [2] concerns Streptococcus pneumoniae. In words: Minimum inhibitory concentration of the compound against 3 […] Streptococcus pneumoniae OC4421 with an mef(A) efflux-mediated resistance was determined.
In another assay the test system is Haemophilus influenzae. In words: Minimum inhibitory concentration of the compound against Haemophilus influenzae OC4882 was determined.
The test system of assay [3] is Mus musculus. In words: Effective dose required to inhibit Staphylococcus aureus in mouse was determined after peroral administration of the compound. As to conditions: po.
In a further assay the test system is Staphylococcus aureus. In words: Minimum inhibitory concentration of the compound against erythromycin-susceptible Staphylococcus aureus Smith OC4172 was determined.
Assay [4] deals with Streptococcus pneumoniae. In words: Minimum inhibitory concentration of the compound against erythromycin-susceptible Streptococcus pneumoniae was determined.
The subject of assay [5] is Mus musculus. Put plainly: Effective dose required to inhibit Staphylococcus aureus in mouse was determined after sub cutaneous administration (6.6-70).
For the next assay, the system named is Enterococcus faecalis. Put plainly: Minimum inhibitory concentration of the compound againstEnterococcus faecalis ATCC 51299 with an erm(B)-encoded ribosomal methylase was determined.
The subject of assay [6] is Mus musculus. Put plainly: Effective dose required to inhibit Staphylococcus aureus in mouse was determined after peroral administration of the compound; (8.1- 14). Conditions: po.
The subject of assay [7] is Mus musculus. Put plainly: Effective dose required to inhibit Staphylococcus aureus in mouse was determined after sub cutaneous administration (0.5-1.4).

In brackets after ≈: the same amount, converted by molar mass.

Usually ED50 stands for the dose that gives a 50% effect, or the effect in half of the subjects. Read a high ED50 as weaker potency. On to `CC[C@H]1OC(=O)[C@@](C)(F)C(=O)[C@H](C)[C@@H](O[C@@H]2O[C@H](C)C[C@H](N(C)C)[C@H]2O)[C@](C)(OC(=O)NC/C=C/c2ccc(-c3ncccn3)cc2)C[C@@H](C)C(=O)[C@H](C)[C@H]2NC(=O)O[C@@]21C`, for which the MIC in the assay with Streptococcus pneumoniae [1] is 0.12 µg/mL (≈ 0.141 µM); against Streptococcus pneumoniae [2], 0.12 µg/mL (≈ 0.141 µM); against Haemophilus influenzae, 8 µg/mL (≈ 9.37 µM); in the assay on Staphylococcus aureus, 0.5 µg/mL (≈ 0.585 µM); with Streptococcus pneumoniae [4] it was 0.06 µg/mL (≈ 0.0703 µM); in the assay with Enterococcus faecalis it was 8 µg/mL (≈ 9.37 µM). The ED50 with Mus musculus [3] was above 40 mg/kg; in the assay on Mus musculus [5], 12 mg/kg.

As for `CC[C@H]1OC(=O)C(C)C(=O)[C@H](C)[C@@H](O[C@@H]2O[C@H](C)C[C@H](N(C)C)[C@H]2O)[C@](C)(OC(=O)NC/C=C/c2ccc(-c3ncccn3)cc2)C[C@@H](C)C(=O)[C@H](C)[C@H]2NC(=O)O[C@@]21C` (stereo partly drawn), the 50% effective dose (ED50) came out at 10 mg/kg in the assay with Mus musculus [6] and 1 mg/kg with Mus musculus [7].

On to `CC[C@H]1OC(=O)[C@@](C)(F)C(=O)[C@H](C)[C@@H](O[C@@H]2O[C@H](C)C[C@H](N(C)C)[C@H]2O)[C@](C)(OC(=O)NC/C=C/c2ccc(-c3ccncn3)cc2)C[C@@H](C)C(=O)[C@H](C)[C@H]2NC(=O)O[C@@]21C`, for which the MIC with Streptococcus pneumoniae [1] is 0.06 µg/mL (≈ 0.0703 µM); in the assay with Streptococcus pneumoniae [2], 0.12 µg/mL (≈ 0.141 µM); in the assay on Haemophilus influenzae, 4 µg/mL (≈ 4.68 µM); against Staphylococcus aureus it was 0.25 µg/mL (≈ 0.293 µM); against Streptococcus pneumoniae [4], 0.03 µg/mL (≈ 0.0351 µM); with Enterococcus faecalis, above 16 µg/mL.

As to `CC[C@H]1OC(=O)[C@@](C)(F)C(=O)[C@H](C)[C@@H](O[C@@H]2O[C@H](C)C[C@H](N(C)C)[C@H]2O)[C@](C)(OC(=O)NCc2ccc(-c3ccncn3)cc2)C[C@@H](C)C(=O)[C@H](C)[C@H]2NC(=O)O[C@@]21C`, the MIC against Streptococcus pneumoniae [1] was determined as 0.06 µg/mL (≈ 0.0725 µM); in the assay with Streptococcus pneumoniae [2], 0.12 µg/mL (≈ 0.145 µM); in the assay with Haemophilus influenzae, 4 µg/mL (≈ 4.83 µM); in the assay with Staphylococcus aureus it was 0.12 µg/mL (≈ 0.145 µM); against Streptococcus pneumoniae [4] it was 0.03 µg/mL (≈ 0.0362 µM); with Enterococcus faecalis, 16 µg/mL (≈ 19.3 µM).

As for `CC[C@H]1OC(=O)[C@@](C)(F)C(=O)[C@H](C)[C@@H](O[C@@H]2O[C@H](C)C[C@H](N(C)C)[C@H]2O)[C@](C)(OC(=O)NC/C=C/c2cn(-c3cnccn3)cn2)C[C@@H](C)C(=O)[C@H](C)[C@H]2NC(=O)O[C@@]21C`, the MIC is 0.06 µg/mL (≈ 0.0711 µM) with Streptococcus pneumoniae [1]; 0.25 µg/mL (≈ 0.296 µM) in the assay with Streptococcus pneumoniae [2]; 8 µg/mL (≈ 9.48 µM) in the assay with Haemophilus influenzae; 0.25 µg/mL (≈ 0.296 µM) in the assay with Staphylococcus aureus; 0.03 µg/mL (≈ 0.0355 µM) against Streptococcus pneumoniae [4]; 16 µg/mL (≈ 19 µM) against Enterococcus faecalis.

Source of the values: ChEMBL document CHEMBL1141900, “Synthesis and antibacterial activity of C2-fluoro, C6-carbamate ketolides, and their C9-oximes” (2005).
